Test results as given in the supplement of paper PMC10307832.

Tests used:
Test in all cases: relative viability (nuclei count vs DMSO), 5 days (fraction); higher = more cells survive
[1] = compound: C1CC(C2=C(C1)C3=C(N2)C=CC(=C3)Cl)C(=O)N [Selisistat] + Nc1ncn([C@H]2C[C@H](O)[C@@H](CO)O2)c(=O)n1 [Decitabine] (partner 2 µM)
Summary of the method: (§1)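 Lung cancer cell lines, seeded in 1536-well plates, were treated the following day by pin tool with a single drug or with five library-drug doses (not always all listed) in √10 steps on top of a fixed anchor-drug dose. Cells were fixed and nuclei stained in one step after 5 days, and nuclei were counted. Relative viability is the nuclei count for treated wells divided by that for vehicle wells, reported as medians of duplicate plates.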

[2] = compound: C1CC(C2=C(C1)C3=C(N2)C=CC(=C3)Cl)C(=O)N [Selisistat] + O=C(CCCCCCC(=O)Nc1ccccc1)NO [Vorinostat] (partner 1 µM)
Summary of the method: as §1

[3] = compound: c1ccc2c(CCNc3ccc(Nc4ccncc4)cc3)c[nH]c2c1 [Serdemetan] + CS(=O)(=O)CCNCc1ccc(-c2ccc3ncnc(Nc4ccc(OCc5cccc(F)c5)c(Cl)c4)c3c2)o1 [Lapatinib] (partner 2 µM)
Summary of the method: as §1

[4] = compound: c1ccc2c(CCNc3ccc(Nc4ccncc4)cc3)c[nH]c2c1 [Serdemetan] + Cc1nc(NC(=O)N2CCC[C@H]2C(N)=O)sc1-c1ccnc(C(C)(C)C(F)(F)F)c1 [Alpelisib] (partner 2 µM)
Summary of the method: as §1

Cell Line	relative viability ([1]; first compound 0.4 µM)	relative viability ([1]; first compound 1.265 µM)	relative viability ([1]; first compound 4 µM)	relative viability ([1]; first compound 12.65 µM)	relative viability ([1]; first compound 40 µM)	relative viability ([2]; first compound 0.4 µM)	relative viability ([2]; first compound 1.265 µM)	relative viability ([2]; first compound 4 µM)	relative viability ([2]; first compound 12.65 µM)	relative viability ([2]; first compound 40 µM)	relative viability ([3]; first compound 0.04 µM)	relative viability ([3]; first compound 0.1265 µM)	relative viability ([3]; first compound 0.4 µM)	relative viability ([3]; first compound 1.265 µM)	relative viability ([3]; first compound 4 µM)	relative viability ([4]; first compound 0.04 µM)	relative viability ([4]; first compound 0.1265 µM)	relative viability ([4]; first compound 0.4 µM)	relative viability ([4]; first compound 1.265 µM)	relative viability ([4]; first compound 4 µM)
NCI-H838	0.557	0.459	0.475	0.45	0.454	0.721	0.806	0.81	0.764	0.773	0.9	0.986	0.9	0.86	1.01	0.994	0.953	0.995	0.962	1.13
NCI-H1355	0.336	0.383	0.345	0.338	0.388	0.686	0.696	0.704	0.719	0.798	0.938	1.13	0.911	1.02	0.973	0.952	0.786	0.752	0.875	0.774
NCI-H1395	0.781	0.633	–	0.657	0.809	0.827	0.671	–	0.536	0.702	1.04	1.07	1.34	0.932	0.717	0.863	0.903	1.12	0.912	0.564
NCI-H1437	0.61	0.597	0.528	0.503	0.543	0.875	0.837	0.886	0.876	0.74	0.846	0.752	0.679	0.76	0.634	0.936	1.01	0.896	0.807	0.802
NCI-H1651	0.673	0.699	0.484	0.58	0.624	0.625	0.672	0.552	0.638	0.622	0.575	0.65	0.49	0.271	0.275	0.889	0.78	0.65	0.371	0.213
NCI-H1666	0.825	0.699	0.692	0.687	0.778	1.09	1.13	1.11	1.13	1.17	0.853	0.656	0.613	0.573	0.498	1.22	1	0.891	0.794	0.807
NCI-H1734	0.562	0.436	0.45	0.556	0.455	0.871	0.68	0.783	0.843	0.85	0.855	–	0.833	0.0959	0.195	0.61	–	0.259	0.122	0.178
NCI-H1755	0.787	0.741	0.74	0.729	0.781	0.831	0.903	0.975	0.766	0.928	0.984	1.01	0.989	0.548	0.714	0.893	0.898	0.815	0.499	0.456
NCI-H1793	0.489	0.459	–	0.552	0.616	0.899	0.679	–	0.88	0.781	0.644	0.679	0.637	0.38	0.625	0.704	0.738	0.754	0.53	0.347
NCI-H1915	0.268	0.244	0.264	0.255	0.277	0.494	0.538	0.661	0.538	0.641	0.967	0.995	1.03	0.955	0.965	1.04	1.06	1.01	0.503	0.802
NCI-H1944	0.506	0.402	0.441	0.452	0.465	0.563	0.526	0.51	0.547	0.593	0.788	0.7	0.768	–	0.494	0.806	0.753	0.715	–	0.453
NCI-H1975	0.396	0.423	0.346	0.373	0.365	0.734	0.731	0.752	0.687	0.691	0.837	0.855	0.882	0.837	1.13	0.68	0.675	0.666	0.637	0.803
NCI-H1993	0.647	0.597	–	0.655	0.546	0.969	0.782	–	0.848	0.949	0.873	0.861	0.75	–	0.768	0.715	0.802	0.621	–	0.67
NCI-H2009	0.437	0.338	0.372	0.45	0.394	0.774	0.786	0.77	0.741	0.793	0.851	1.03	0.889	0.822	0.691	1.18	1.11	1.08	1.12	0.964
NCI-H2023	0.233	0.198	0.219	0.216	0.202	0.662	0.786	0.784	0.674	0.853	0.709	0.861	0.742	0.387	0.253	0.613	0.651	0.521	0.375	0.266
NCI-H2085	0.595	0.551	0.577	0.625	0.588	0.908	0.855	0.714	0.828	0.84	0.814	0.779	0.74	0.649	0.501	0.952	0.911	0.801	0.573	0.585
NCI-H2087	0.34	0.295	–	0.263	0.234	0.897	0.667	–	0.422	0.76	1.06	0.974	1.1	0.641	0.508	1.1	0.986	1.09	0.669	0.532
